Results on 3 compounds are retold here after US7462345B2, “Radionuclide labeling of vitamin B12 and coenzymes thereof” (Mayo Foundation for Medical Education and Research, priority 1995, dated 2008).

Data set [1] relates to Transcobalamins (TC). The experiment in a line: modified Unsaturated vitamin B12 Binding Capacity (UBBC) assay. Further details: species or system human. The note with it: for averaged percent binding to the transcobalamin proteins: average of five patients; for UBBC supernatant counts: NSB = counts <100. The method, then:
(§1) Under dim light, 1000 μg of the non-labeled methyl-, adenosyl-, and cyanocobalamin-b-(4-aminobutyl)amide-DTPA, as well as 1000 μg of cyanocobalamin and DTPA (Sigma, St. Louis, Mo. 63178), were separately dissolved in 10 ml of normal saline at room temperature. Each of the five 1000 μg/10 ml samples were stored in sealed, aluminum-Tapped 10 ml vials to prevent exposure to light. No buffers were added to the solutions. The pH of the solutions, measured by a Beckman 40 pH meter (Beckman Instruments, Fullerton, Calif.): Cyanocobalamin=5.75, DTPA=3.78; cyano, methyl and adenosylcobalamin-DTPA analogues were 5.75, 6.10, and 6.19, respectively. To assess in vitro binding to Intrinsic Factor (IF) and Transcobalamins (TC), the intrinsic factor blocking antibody (IFBA) and Unsaturated vitamin B12 Binding Capacity (UBBC) assays were performed with serum randomly obtained from five patients being evaluated for pernicious anemia at the Mayo Clinic. The IFBA and UBBC assays were first performed for clinical purposes as previously described by V. F. Fairbanks et al., Mayo Clin. Proc., 58, 203 (1983); Intrinsic Factor Blocking Antibody [^57Co] Radioassay-Package insert, Diagnostic Products Corp.; D. Grossowicz et al., Proc. Exp. Biol. 109, 604 (1962) and C. Gottlieb et al., Blood 25, 6 (1965). Next, the serum from the same five patients underwent modified IFBA and UBBC assays. Specifically, 1 μl of the five previously described solutions were separately incubated with purified IF or serum, to potentially saturate all IF and TC binding sites. After incubation for 20 minutes at room temperature and for another 20 minutes at 4° C., 500 μl of the stock (1000 μg/l) Cobalt-57-cyanocobalamin (Mallinckrodt Medical. Inc., St. Louis, Mo. 63134) solution was added and the usual IFBA and UBBC protocols were then followed. All supernatant activity was counted for four minutes on a gamma counter (Micromedix 10/20, Huntsville, Ala. 35805).

Data set [2] relates to Intrinsic Factor (IF). The experiment in a line: modified intrinsic factor blocking antibody (IFBA) assay. The data set is classed as binding. The note with it: for averaged percent binding to IF: average of five patients, estimated from counts vs Clinical run. The method, then: as §1
Data set [3] in a line: pH of 1000 μg/10 ml normal saline solutions. The data set is classed as physicochemical. The note with it: 1000 μg in 10 ml normal saline, no buffers, room temperature. Here is the method: Under dim light, 1000 μg of the non-labeled methyl-, adenosyl-, and cyanocobalamin-b-(4-aminobutyl)amide-DTPA, as well as 1000 μg of cyanocobalamin and DTPA (Sigma, St. Louis, Mo. 63178), were separately dissolved in 10 ml of normal saline at room temperature. Each of the five 1000 μg/10 ml samples were stored in sealed, aluminum-Tapped 10 ml vials to prevent exposure to light. No buffers were added to the solutions. The pH of the solutions, measured by a Beckman 40 pH meter (Beckman Instruments, Fullerton, Calif.): Cyanocobalamin=5.75, DTPA=3.78; cyano, methyl and adenosylcobalamin-DTPA analogues were 5.75, 6.10, and 6.19, respectively.

Setting [4] is: serum PT 1, preincubated with 1 μl of 1000 μg/10 ml solution, then Co-57-cyanocobalamin, Clinical Run 741.
Setting [5] is: PT 1, negative <1.11, positive (binding to IF) >1.43, indeterminate 1.11-1.43.
Where [6] appears, read: PT 2, negative <1.11, positive >1.43.
[7] abbreviates: PT 3, negative <1.11, positive >1.43.
The mark [8] stands for this setting: PT 4, negative <1.11, positive >1.43.
Setting [9] is: PT 5, negative <1.11, positive >1.43.

Turning to `CC1=C2N=C(C=C3N=C(C(C)=C4[N-]C(C(CC(N)=O)C4(C)CCC(=O)NCC(C)OP(=O)([O-])OC4C(CO)OC(n5cnc6cc(C)c(C)cc65)C4O)C4(C)N=C1C(CCC(=O)NCCCCNC(=O)CN(CCN(CCN(CC(=O)O)CC(=O)O)CC(=O)O)CC(=O)O)C4(C)CC(N)=O)C(CCC(N)=O)C3(C)C)C(CCC(N)=O)C2(C)CC(N)=O.[CH2-]C1OC(n2cnc3c(N)ncnc32)C(O)C1O.[Co+3]` (stereo not drawn) [ADB12DTPA, adenosylcobalamin-b-(4-aminobutyl)-amide-DTPA], the “averaged percent binding to the transcobalamin proteins” value in data set [1] was found to be 90.4%. For the same compound, the UBBC supernatant counts is recorded as 54.6 counts in data set [1] (setting [4]); 62.6 counts in data set [1] (serum PT 2, Clinical Run 632); 590.3 counts in data set [1] (serum PT 3, Clinical Run 2097); 126.9 counts in data set [1] (serum PT 4, Clinical Run 1378); 163.9 counts in data set [1] (serum PT 5, Clinical Run 1682). The IFBA supernatant counts in data set [2] (PT 1, Clinical Run 11942.5) is reported as 6758.5 counts; in data set [2] (PT 2, Clinical Run 11656), 6841.5 counts; in data set [2] (PT 3, Clinical Run 11780), 6828.5 counts; in data set [2] (PT 4, Clinical Run 11617) it was 7046.5 counts; in data set [2] (PT 5, Clinical Run 11653.5) it was 7096.5 counts. The “IFBA value (in parentheses)” value in data set [2] (setting [5]) is given as “(2.30)”; in data set [2] (setting [6]), “(1.74)”; in data set [2] (setting [7]) it was “(1.74)”; in data set [2] (setting [8]), “(1.64)”; in data set [2] (setting [9]), “(1.72)”. Besides, the “averaged percent binding to IF” value in data set [2] is 41.0%. For the same compound, the “pH of the solution” value in data set [3] is listed as 6.19.
`CC1=C2N=C(C=C3N=C(C(C)=C4[N-]C(C(CC(N)=O)C4(C)CCC(=O)NCC(C)OP(=O)([O-])OC4C(CO)OC(n5cnc6cc(C)c(C)cc65)C4O)C4(C)N=C1C(CCC(=O)NCCCCNC(=O)CN(CCN(CCN(CC(=O)O)CC(=O)O)CC(=O)O)CC(=O)O)C4(C)CC(N)=O)C(CCC(N)=O)C3(C)C)C(CCC(N)=O)C2(C)CC(N)=O.[C-]#N.[Co+3]` (stereo not drawn) [CNB12DTPA, cyanocobalamin-b-(4-aminobutyl)-amide-DTPA]: the “averaged percent binding to the transcobalamin proteins” value in data set [1] was 66.4%. For the same compound, the UBBC supernatant counts worked out at 222.6 counts in data set [1] (setting [4]); 216.9 counts in data set [1] (serum PT 2, Clinical Run 632); 713.3 counts in data set [1] (serum PT 3, Clinical Run 2097); 433.2 counts in data set [1] (serum PT 4, Clinical Run 1378); 643.2 counts in data set [1] (serum PT 5, Clinical Run 1682). The IFBA supernatant counts in data set [2] (PT 1, Clinical Run 11942.5) is 5151 counts; in data set [2] (PT 2, Clinical Run 11656), 5133.5 counts; in data set [2] (PT 3, Clinical Run 11780) it was 5338.5 counts; in data set [2] (PT 4, Clinical Run 11617) it was 6002.5 counts; in data set [2] (PT 5, Clinical Run 11653.5) it was 5973.5 counts. Further, the “IFBA value (in parentheses)” value in data set [2] (setting [5]) is listed as “(2.30)”; in data set [2] (setting [6]), “(2.31)”; in data set [2] (setting [7]) it was “(2.22)”; in data set [2] (setting [8]), “(1.98)”; in data set [2] (setting [9]), “(1.99)”. Further, the “averaged percent binding to IF” value in data set [2] was 52.9%. Besides, the “pH of the solution” value in data set [3] was 5.75.
In the case of `CC1=C2N=C(C=C3N=C(C(C)=C4[N-]C(C(CC(N)=O)C4(C)CCC(=O)NCC(C)OP(=O)([O-])OC4C(CO)OC(n5cnc6cc(C)c(C)cc65)C4O)C4(C)N=C1C(CCC(=O)NCCCCNC(=O)CN(CCN(CCN(CC(=O)O)CC(=O)O)CC(=O)O)CC(=O)O)C4(C)CC(N)=O)C(CCC(N)=O)C3(C)C)C(CCC(N)=O)C2(C)CC(N)=O.[CH3-].[Co+3]` (stereo not drawn) [MEB12DTPA, methylcobalamin-b-(4-aminobutyl)-amide-DTPA], the “averaged percent binding to the transcobalamin proteins” value in data set [1] is given as 94.0%. Also, the UBBC supernatant counts in data set [1] (setting [4]) came out at 17.1 counts; in data set [1] (serum PT 2, Clinical Run 632), 26.8 counts; in data set [1] (serum PT 3, Clinical Run 2097), 278.9 counts; in data set [1] (serum PT 4, Clinical Run 1378) it was 60.9 counts; in data set [1] (serum PT 5, Clinical Run 1682), 91.1 counts. Moreover, the IFBA supernatant counts in data set [2] (PT 1, Clinical Run 11942.5) was determined as 4279 counts; in data set [2] (PT 2, Clinical Run 11656) it was 4082 counts; in data set [2] (PT 3, Clinical Run 11780), 4456.5 counts; in data set [2] (PT 4, Clinical Run 11617) it was 4414 counts; in data set [2] (PT 5, Clinical Run 11653.5) it was 4381.5 counts. Besides, the “IFBA value (in parentheses)” value is “(2.77)” in data set [2] (setting [5]); “(2.92)” in data set [2] (setting [6]); “(2.66)” in data set [2] (setting [7]); “(2.69)” in data set [2] (setting [8]); “(2.77)” in data set [2] (setting [9]). For the same compound, the “averaged percent binding to IF” value in data set [2] was 63.2%. Moreover, the “pH of the solution” value in data set [3] came to 6.10.
